Measured values as given in patent US8119128B2, “Antibodies that bind urokinase-type plasminogen activator and epitopes therefor” (The Regents of the University of Colorado, a body corporate, priority 2004, dated 2012).

Legend:
Format in all cases: cell-based, mouse
[1] = test system: LPS stimulated neutrophils; assay: LPS-induced cytokine mRNA expression in neutrophils, quantitative RT-PCR; conditions: LPS 10 ng/ml, protein 10 nM, 4 hours; FIG. 1-4
Experimental: Isolation of neutrophils. Neutrophils were purified from bone marrow cell suspensions as previously described by Abraham, et al., J Immunol 170:5644 (2003), Asehnoune, et al., J Immunol 172:2522 (2004), and Strassheim, et al., Am J Physiol Cell Physiol 286:C683 (2004). Briefly summarized, to obtain the bone marrow cell suspension, the femur and tibia of a mouse were flushed with 5 ml RPMI 1640/penicillin/streptomycin and the cells passed through a glass wool column, and pelleted by centrifugation at 1000 rpm for 10 minutes. […] Neutrophil purity, as determined by Wright's stained cytospin preparations, was greater than 97%. Cell viability, as determined by trypan blue exclusion, was consistently greater than 98%.
(§1) Real time quantitative RT-PCR. Quantitative RT-PCR to measure neutrophil cytokine expression was performed as previously described by Abraham, et al., J Immunol 170:5644 (2003), and Park, et al., Am J Physiol Cell Physiol 284:C870 (2003). […] For each mRNA detected, a fluorogenic probe and two primers (forward and reverse) for PCR were synthesized (Applied Biosystems, Foster City, Calif.). […]
All reagents used in the one step RT-PCR reactions were purchased from Applied Biosystems. […] The amount of cytokine mRNA was determined from a standard curve with 10 fold dilutions of known amounts of target RNA for each primer and probe set. […]

integrins = assay: RGD or RGE peptide added to neutrophil cultures containing uPA and LPS; conditions: LPS 10 ng/ml, scuPA 10 nM, peptide 50 μM, 4 hours; FIG. 7
Experimental: (§2) Isolation of neutrophils. Neutrophils were purified from bone marrow cell suspensions as previously described by Abraham, et al., J Immunol 170:5644 (2003), Asehnoune, et al., J Immunol 172:2522 (2004), and Strassheim, et al., Am J Physiol Cell Physiol 286:C683 (2004). Briefly summarized, to obtain the bone marrow cell suspension, the femur and tibia of a mouse were flushed with 5 ml RPMI 1640/penicillin/streptomycin and the cells passed through a glass wool column, and pelleted by centrifugation at 1000 rpm for 10 minutes. The cell pellets were resuspended in 0.3% FCS/PBS and then incubated with 20 μl of primary antibodies specific for cell surface markers F4/80, CD4, CD45R, CD5, and TER19 for 15 minutes, rotating at 4° C. This custom cocktail (Stem Cell Technologies, Vancouver, British Columbia) is specific for T and B cells, RBC, monocytes and macrophages. Anti-biotin tetrameric antibody complexes (100 μl) were then added, and the cells incubated for 15 minutes, rotating at 4° C. Following this, 60 μl of colloidal magnetic dextran iron particles was added to the suspension and incubated for 15 minutes, rotating at 4° C. The entire cell suspension was then placed into a column, surrounded by a magnet. The T cells, B cells, RBC, monocytes and macrophages were captured in the column, allowing the neutrophils to pass through by negative selection methods. Neutrophil purity, as determined by Wright's stained cytospin preparations, was greater than 97%. Cell viability, as determined by trypan blue exclusion, was consistently greater than 98%.
as §1

[2] = test system: LPS stimulated neutrophils; assay: Cytokine ELISA of culture supernatants of LPS stimulated neutrophils; conditions: LPS 10 ng/ml, protein 10 nM, 4 hours, FIG. 5
Experimental: as §2, with “Anti-biotin tetrameric antibody complexes (100 μl) were then added, and the cells incubated for 15 minutes, rotating at 4° C. Following this, 60 μl of colloidal magnetic dextran iron particles was added to the suspension and incubated for 15 minutes, rotating at 4° C. The entire cell suspension was then placed into a column, surrounded by a magnet. The T cells, B cells, RBC, monocytes and macrophages were captured in the column, allowing the neutrophils to pass through by negative selection methods.” left out
Cytokine ELISA. Immunoreactive TNF-α, IL-1β, and MIP-2 were quantified using commercially available ELISA kits (R&D Systems, Minneapolis, Minn.), according to manufacturer's instructions and as described previously by Yum, et al., J Immunol 167:6601 (2001). […]

Row | Molecule | enhancement of LPS-induced cytokine mRNA expression (IL-1β, TNF-α, MIP-2) compared with scuPA [1] | increased production of IL-1β, TNF-α, and MIP-2 produced by co-culture of LPS stimulated neutrophils with scuPA (integrins) | uPA-induced potentiation of neutrophil responses (integrins) | neutrophil production (secretion) of IL-1β, TNF-α, and MIP-2 [2]
1 | ATF: amino terminal fragment of uPA, which contains the uPA GFD and KD | to the same extent as did scuPA |  |  | 
2 | RGD: RGD peptide that blocks interactions with integrins |  | prevented | blocked | 
3 | RGE: RGE peptide that serves as a control |  |  | not | 
4 | KD: purified kringle domain of uPA (amino acids 47-135), SEQ ID NO:2 epitope (protein) SKTCYEGNGHFYRGKASTDTMGRPCLPWNSATVLQQTYHAHRSDALQLGLGKHNYCRNPDNRRRPWCYVQVGLKPLVQECMVHDCA | to the same extent or even a greater extent than did scuPA |  |  | to the same extent as did intact scuPA
